Data from patent publication US4703036A, “Peptide-aldehydes, process for the preparation thereof and pharmaceutical compositions containing the same” (Richter Gedeon Vegyeszeti Gyar RT, priority 1984, dated 1987).
Non-standard residues stand in square brackets, D forms with d. Residues, ends and D or L forms follow the SMILES beside them. dNMeaIle = CC[C@H](C)[C@@H](NC)C(=O)O

Key:
[1] = biological target: T1, US Standard Human Thrombin (Homo sapiens, UniProt P00734); experiment: Antithrombin activity: clotting time in the thrombin-fibrinogen system; format: biochemical; conditions: for Initial activity I80 (zero day): peptide concentration in the reaction mixture inducing a fivefold prolongation of clotting time compared to the control (15 s)
T1 construct: US Standard Human Thrombin; purchased NIH, Bethesda, Md., USA
Protocol: Antithrombin activities were assayed in a system containing the following components:
(§1) 0.2 ml 0.5 percent bovine fibrinogen in a 0.9 percent solution of sodium chloride,
0.1 ml tris(hydroxymethyl)-amino-methane-hydrochloride-hydrochloric acid buffer (pH=7.2) containing the peptide solution, and
0.1 ml US Standard Human Thrombin (NIH, Bethesda, Md., USA), 10 unit/ml solution.
The clotting time of the peptide-free system is 15 s, measured in the "Schnither-Gross-Coagulometer". The initial activity of the tripeptide-aldehyde sulfates was arbitrarily set up as the mole concentration inducing the fivefold prolongation of clotting time in the system compared to the control (I80 value). The activity of the peptides in the solutions, assayed on the 1st, 3rd and 5th day, was expressed as a percentage of the initial activity (zero day).

[2] = biological target: T1, US Standard Human Thrombin; experiment: Change in the antithrombin activity of aqueous solutions of tripeptide-aldehyde sulfates on storage; format: physicochemical; conditions: aqueous solution 10 mg/ml; for loss of initial antithrombin activity during the observation period: pH 6.0, 40° C., 5 days; for Activity (%) Day 1 / Activity (%) Day 2 / Activity (%) Day 3: percentage of initial activity, pH = 6.0, stored at 40° C.
Protocol: The transformations proceeding in the solutions were monitored by chromatography and by measuring antithrombin activity. Antithrombin activities were assayed in a system containing the following components: […] 0.1 ml US Standard Human Thrombin (NIH, Bethesda, Md., USA), 10 unit/ml solution. The clotting time of the peptide-free system is 15 s, measured in the "[…]-Gross-Coagulometer". The initial activity of the tripeptide-aldehyde sulfates was arbitrarily set up as the mole concentration inducing the fivefold prolongation of clotting time in the system compared to the control ([…] value).

[3] = Conversion to the tricyclic compound in aqueous solution, monitored by chromatography; format: physicochemical
[4] = biological target: T2, plasmin (Homo sapiens, UniProt P00747); experiment: Effect on the plasmin-fibrin reaction: lysis time of fibrin clot; format: biochemical; parameters: key: **: No measurable lysis time due to clot of rather loose structure; conditions: peptide-free system 10 minutes
T2 construct: 0.1 U plasmin dissolved in buffer solution (KABI, Stockholm, Sweden); purchased KABI, Stockholm, Sweden
Protocol: as §1
0.1 ml tris(hydroxymethyl)-amino-methane hydrochloride-hydrochloric acid buffer (pH=7.2), containing the peptide,
0.1 ml 0.1 U plasmin dissolved in buffer solution (KABI, Stockholm, Sweden), and
0.1 ml US Standard Human Thrombin (NIH, Bethesda, Md., USA) 10 U/ml solution.
The lysis time of the fibrin gel formed in the peptide-free system is 10 minutes. D-Phenylalanyl-L-prolyl-L-arginine-aldehyde sulfate and the above-mentioned t-butyloxycarbonyl-D-phenylalanyl-L-prolyl-L-arginine-aldehyde hemisulfate were used as reference substances.

[5] = Conversion to the tricyclic compound in aqueous solution, monitored by chromatography; format: physicochemical; conditions: for irreversible conversion to the tricyclic compound: aqueous solution 10 mg/ml, pH=6.0, 40° C., 5 days, thin-layer chromatography
Protocol: The structure of this compound [1,2,4,5,6,6a-hexahydro-1-benzyl-2-oxo-8-(4'-guanidino)-butyl-pyrrolo[1,2- a]imidazolo[2,1-c]pyrazine] was confirmed by mass spectrometry and NMR spectroscopy. […] 817], they are less suitable for anticoagulant therapy.
During stability testing aqueous solutions of D-phenylalanyl-L-prolyl-L-arginine-aldehyde sulfate as well as of the corresponding N-alkyl derivatives with a concentration of 10 mg/ml (pH=6.0) were stored at 40° C. for 5 days. The transformations proceeding in the solutions were monitored by chromatography and by measuring antithrombin activity.

[6] = biological target: T1, US Standard Human Thrombin; conditions: cool solution (5° C.), prolonged period; Belgian patent specification No. 891,708; cited from earlier work
[7] = test system: male New Zealand rabbits; experiment: In vivo anticoagulant effect: whole blood clotting time and plasma thrombin time; parameters: species or system rabbit; conditions: lowest dose required to attain therapeutic effect; for Lowest effective dose iv: intravenous infusion for 3 hours; for Lowest effective dose po: oral administration
Protocol: The peptides, dissolved in isotonic saline solution, were administered orally or intravenously to male New Zealand rabbits weighing 2 to 3 kg. At intravenous application infusions of 0.5 to 2.0 mg/kg/h were given at a rate of 6 ml/h for 3 hours. At oral administration 20 to 30 mg/kg doses of the peptides were given in volumes of 2 ml. After application blood samples were taken in 30 minute periods from the ear vein of the rabbits and the clotting time of whole blood was assayed in a Thromboelastograph [H. Harter: Zeitschrift fur klinische Medizin 153, 423 (1955)], simultaneously the plasma thrombin time was measured, too [R. T. S. Jim: J. Lab. Clin. Med. 50, 45 (1957)]. The lowest doses required to attain therapeutic effect (M. Verstraete and R. Verwilghen in Drug Treatment, 2nd ed., Ed.: G. S. Avery, Churchill Livingstone, Edinburgh-London, 1980, p. 919) were presented in Table 3, D-phenylalanyl-L-prolyl-L-arginine-aldehyde sulfate served as reference substance.

[8] = biological target: T2, plasmin; conditions: literature statement; cited from earlier work
[9] = biological target: T1, US Standard Human Thrombin; conditions: literature statement; cited from earlier work

T2 sequence (P00747 581-810 limits assumed): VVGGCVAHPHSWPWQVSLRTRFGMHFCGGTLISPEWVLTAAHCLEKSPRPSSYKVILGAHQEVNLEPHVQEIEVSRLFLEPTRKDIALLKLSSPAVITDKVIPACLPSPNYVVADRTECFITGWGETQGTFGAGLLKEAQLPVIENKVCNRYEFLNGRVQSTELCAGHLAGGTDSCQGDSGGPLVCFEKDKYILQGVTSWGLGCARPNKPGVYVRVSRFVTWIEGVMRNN
T2 sequence (P00747 97-580 partner limits assumed): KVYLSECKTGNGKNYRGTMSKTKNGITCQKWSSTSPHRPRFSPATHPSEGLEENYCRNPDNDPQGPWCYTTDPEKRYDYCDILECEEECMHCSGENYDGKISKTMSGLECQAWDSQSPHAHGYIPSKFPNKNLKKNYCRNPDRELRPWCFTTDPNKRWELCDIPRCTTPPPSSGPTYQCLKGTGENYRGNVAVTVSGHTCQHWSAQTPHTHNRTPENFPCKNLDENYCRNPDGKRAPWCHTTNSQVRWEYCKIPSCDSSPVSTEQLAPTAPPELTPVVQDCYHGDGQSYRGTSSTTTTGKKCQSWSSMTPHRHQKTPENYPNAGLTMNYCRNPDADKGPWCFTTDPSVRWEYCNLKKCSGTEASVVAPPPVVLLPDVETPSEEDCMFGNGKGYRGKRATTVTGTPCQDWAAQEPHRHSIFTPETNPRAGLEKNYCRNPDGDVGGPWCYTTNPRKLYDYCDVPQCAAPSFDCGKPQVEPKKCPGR

Molecule | loss of initial antithrombin activity during the observation period [2] | Activity (%) Day 1 [2] [%] | Activity (%) Day 2 [2] [%] | Activity (%) Day 3 [2] [%] | Lysis time of fibrin clot ([4]; peptide content 0.18 μM) [min] | Lysis time of fibrin clot ([4]; peptide content 0.36 μM) | Lysis time of fibrin clot ([4]; peptide content 0.72 μM) | Initial activity I80 (zero day) [1] [µM] | Lowest effective dose iv [7] [mg/kg/h] | Lowest effective dose po [7] [mg/kg] | irreversible conversion to the tricyclic compound ([5]; sulfate) | also measured
1,2,4,5,6,6a-hexahydro-1-benzyl-2-oxo-8-(4'-guanidino)-butyl-pyrrolo[1,2- a]imidazolo[2,1-c]pyrazine [tricyclic compound] |  |  |  |  |  |  |  |  |  |  |  | enzyme inhibitory activity ([1]; conversion product, method not described): devoid of enzyme inhibitory activity
N=C(N)NCCC[C@@H](C=O)NC(=O)[C@@H]1CCCN1C(=O)[C@H](N)Cc1ccccc1.O=S(=O)(O)O [D-Phenylalanyl-L-prolyl-L-arginine-aldehyde sulfate, reference compound] | more than 50% | 100 | 50 | 40 | 10 | ** | no clot formed | 0.25 | 0.5 | 20 |  | time to practically complete transformation into the tricyclic compound at 37° to 40° C. ([3]; 37° to 40° C.): 10 to 14 days; transformation into the tricyclic compound at 80° to 100° C. ([3]; 80° to 100° C.): within hours; irreversible conversion to the tricyclic compound [5]: gradually reduced; stability: retention of initial activity in cool solution [6]: retaining its initial activity
CC(=O)O.N=C(N)NCCC[C@@H](C=O)NC(=O)[C@@H]1CCCN1C(=O)[C@H](N)Cc1ccccc1 [D-phenylalanyl-L-prolyl-L-arginine-aldehyde acetate, reference compound] |  |  |  |  |  |  |  |  |  |  |  | transformation into the corresponding tricyclic compound ([5]; conditions not stated): especially highly susceptible
CN(C)[C@H](Cc1ccccc1)C(=O)N1CCC[C@H]1C(=O)N[C@H](C=O)CCCNC(=N)N.O=S(=O)(O)O [N,N-Dimethyl-D-phenylalanyl-L-prolyl-L-arginine-aldehyde sulfate] |  |  |  |  |  |  |  |  |  | 30 |  | irreversible conversion to the tricyclic compound [5]: no such conversion was detectable
CCN[C@H](Cc1ccccc1)C(=O)N1CCC[C@H]1C(=O)N[C@H](C=O)CCCNC(=N)N.O=S(=O)(O)O [N-Ethyl-D-phenylalanyl-L-prolyl-L-arginine-aldehyde sulfate] | 15 to 20% | 100 | 100 | 85 |  |  |  | 0.21 | 0.5 | 20 | fail to be irreversibly converted | irreversible conversion to the tricyclic compound ([5]; listed as N-ethyl derivative, sulfate): no such conversion was detectable
CC(C)CN[C@H](Cc1ccccc1)C(=O)N1CCC[C@H]1C(=O)N[C@H](C=O)CCCNC(=N)N.O=S(=O)(O)O [N-Isobutyl-D-phenylalanyl-L-prolyl-L-arginine-aldehyde sulfate] | 15 to 20% | 100 | 85 | 80 |  |  |  | 0.31 |  | 20 | fail to be irreversibly converted | irreversible conversion to the tricyclic compound ([5]; listed as N-isobutyl derivative, sulfate): no such conversion was detectable
CC[C@H](C)[C@@H](NC)C(=O)N1CCC[C@H]1C(=O)N[C@H](C=O)CCCNC(=N)N.O=S(=O)(O)O [N-Methyl-D-alloisoleucyl-L-prolyl-L-arginine-aldehyde sulfate] (H-[dNMeaIle]-Pro-Arg-aldehyde) |  |  |  |  |  |  |  |  | 1.0 | 30 |  | 
CN[C@H](Cc1ccccc1)C(=O)N1CCC[C@H]1C(=O)N[C@@H](C=O)CCCNC(=N)N.O=S(=O)(O)O [N-Methyl-D-phenylalanyl-L-prolyl-D-arginine-aldehyde sulfate] |  | 100 | 100 | 100 |  |  |  | 0.25 |  |  |  | 
CN[C@H](Cc1ccccc1)C(=O)N1CCC[C@H]1C(=O)N[C@H](C=O)CCCNC(=N)N.O=S(=O)(O)O [N-Methyl-D-phenylalanyl-L-prolyl-L-arginine-aldehyde sulfate] | retained its initial potency |  |  |  | 10 | ** | no clot formed |  | 0.5 | 20 | fail to be irreversibly converted | irreversible conversion to the tricyclic compound ([5]; listed as N-methyl derivative, sulfate): no such conversion was detectable
t-butyloxycarbonyl-D-phenylalanyl-L-prolyl-L-arginine-aldehyde hemisulfate |  |  |  |  | 10 | 20 min | 40 min |  |  |  |  | effect on the plasmin-fibrin reaction [8]: inhibit; inhibition of the thrombin-fibrinogen reaction [9]: inhibit
